Like-named read-outs stand apart in the source and are kept apart here. Starred links: 1 amine or outer side, 2 acyl side, 3 side chain; linkers in the order of their positions; H or OH if unused. Non-standard residues stand in square brackets, D forms with d. Residues, ends and D or L forms follow the SMILES beside them. Groups on a side chain read outwards from the residue. *: point of attachment. C18 diacid = O=C(O)CCCCCCCCCCCCCCCCC(=O)*; γGlu = O=C(O)[C@H](CCC(=O)[*:2])N[*:1]; εLys = N[C@@H](CCCCN[*:1])C(=O)[*:2]; Aib = CC(C)(N)C(=O)O
Assays:
human GLP-1 receptor = human GLP-1 receptor (Homo sapiens, UniProt P43220); assay: In vitro functional potency, CRE luciferase reporter, whole BHK cells (hGLP-1R); type: cell-based; parameters: expressed in transfected cells; host or cells: BHK (parent line BHKTS13), clone BHK CRE luc2P hGLP-1R; details: BHK CRE luc2P hGLP-1R cells
Outline: (§1)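 Potencies are replicate means (n≥2) from non-linear log(agonist) vs response fits of CRE-driven luminescence. Cells were overnight-plated BHK CRE luc2P lines transfected with human GIPR or GLP-1R, 5000/well.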

[1] = Pharmacokinetic study in dogs after oral dosing of tablets with SNAC; type: in vivo, Beagle dogs; details: dog, in vivo, po
Outline: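 The tablets held 3-4 mg compound plus 100-300 mg SNAC and were given to fasted male beagles (6-8 per group); non-compartmental PK per animal.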

human GIP receptor = molecular target: T1, human GIP receptor (Homo sapiens, UniProt P48546); assay: In vitro functional potency, CRE luciferase reporter, whole BHK cells (hGIPR); type: cell-based; details: BHK CRE luc2P hGIPR cells
T1 construct: expressed in transfected cells; host or cells: BHK (parent line BHKTS13), clone BHK CRE luc2P hGIPR
T1 sequence (P48546 22-466): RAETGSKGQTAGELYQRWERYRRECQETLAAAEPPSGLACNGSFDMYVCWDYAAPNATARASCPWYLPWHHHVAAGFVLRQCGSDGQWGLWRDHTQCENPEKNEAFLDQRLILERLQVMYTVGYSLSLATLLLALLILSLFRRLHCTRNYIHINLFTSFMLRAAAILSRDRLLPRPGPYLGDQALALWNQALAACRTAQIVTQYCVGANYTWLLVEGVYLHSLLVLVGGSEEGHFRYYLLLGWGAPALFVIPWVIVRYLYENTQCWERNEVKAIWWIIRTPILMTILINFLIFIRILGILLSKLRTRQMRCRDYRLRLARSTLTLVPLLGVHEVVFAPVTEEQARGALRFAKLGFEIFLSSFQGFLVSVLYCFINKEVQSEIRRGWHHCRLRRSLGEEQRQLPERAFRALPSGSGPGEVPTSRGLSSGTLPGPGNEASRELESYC
Outline: as §1

Chain of human GLP-1 receptor (P43220 24-463): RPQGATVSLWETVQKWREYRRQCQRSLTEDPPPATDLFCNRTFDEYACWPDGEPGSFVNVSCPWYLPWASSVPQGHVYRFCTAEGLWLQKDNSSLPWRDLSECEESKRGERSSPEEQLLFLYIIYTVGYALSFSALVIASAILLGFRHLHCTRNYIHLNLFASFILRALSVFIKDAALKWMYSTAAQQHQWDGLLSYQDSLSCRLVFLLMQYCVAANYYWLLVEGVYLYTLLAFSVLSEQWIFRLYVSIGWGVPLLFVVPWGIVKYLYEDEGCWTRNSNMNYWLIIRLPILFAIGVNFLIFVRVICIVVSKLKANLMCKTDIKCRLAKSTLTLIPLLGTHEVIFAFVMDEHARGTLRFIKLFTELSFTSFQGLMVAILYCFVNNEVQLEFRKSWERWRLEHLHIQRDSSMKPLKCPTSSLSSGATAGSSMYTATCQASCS

## CC[C@H](C)[C@H](NC(=O)[C@H](Cc1ccccc1)NC(=O)[C@H](CCC(=O)O)NC(=O)[C@H](Cc1c[nH]cn1)NC(=O)[C@H](C)NC(=O)[C@H](C)NC(=O)[C@H](CCC(N)=O)NC(=O)[C@H](CCCCNC(=O)[C@@H](N)CCCCNC(=O)[C@@H](N)CCCCNC(=O)CC[C@H](NC(=O)CCCCCCCCCCCCCCCCC(=O)O)C(=O)O)NC(=O)[C@H](CCC(=O)O)NC(=O)[C@H](CC(C)C)NC(=O)[C@H](CC(C)C)NC(=O)[C@@H](NC(=O)[C@H](CO)NC(=O)[C@H](Cc1ccc(O)cc1)NC(=O)[C@H](CC(=O)O)NC(=O)[C@H](CO)NC(=O)[C@@H](NC(=O)[C@H](Cc1ccccc1)NC(=O)[C@@H](NC(=O)CNC(=O)[C@H](CCC(=O)O)NC(=O)C(C)(C)NC(=O)[C@@H](N)Cc1ccc(O)cc1)[C@@H](C)O)[C@@H](C)O)[C@@H](C)CC)C(=O)N[C@@H](CCC(=O)O)C(=O)N[C@@H](Cc1c[nH]c2ccccc12)C(=O)N[C@@H](CC(C)C)C(=O)N[C@@H](CC(C)C)C(=O)N[C@@H](C)C(=O)NCC(=O)NCC(=O)N1CCC[C@H]1C(=O)N[C@@H](CO)C(=O)N[C@@H](CO)C(=O)NCC(=O)N[C@@H](C)C(=O)N1CCC[C@H]1C(=O)N1CCC[C@H]1C(=O)N1CCC[C@H]1C(=O)N[C@@H](CO)C(=O)O [Compound 30] (H-Y[Aib]EGTFTSDYSILLEK([εLys-εLys-γGlu-C18 diacid])QAAHEFIEWLLAGGPSSGAPPPS-OH)
Human GLP-1 receptor; 0% HSA, read-out: hGLP-1R, CRE Luc 0% HSA EC50
  EC50: 0.0073 nM
Human GLP-1 receptor; hGLP-1R, CRE Luc 1% HSA EC50, 1% HSA
  EC50: 0.267 nM
[1]
  AUC/Dose: 6.5 kg·h/L
  Cmax/Dose: 0.24 kg/L
[1]; male, Beagle
  Tmax: 0.8 h
  half-life: 81 h
Human GIP receptor; 0% HSA, read-out: hGIPR, CRE Luc 0% HSA EC50
  EC50: 0.0032 nM
Human GIP receptor; hGIPR, CRE Luc 1% HSA EC50, 1% HSA
  EC50: 0.185 nM
